Marks after values point to notes of the source that are not given here.
Legend:
Phytophthora infestans = assay: whole plant or invertebrate; assay type: in vivo
[1] = tested on: Erysiphe graminis f. sp. tritici; assay: Test L: wheat powdery mildew, preventive spray on wheat seedlings
Rhizoctonia oryzae = assay: Test G: turf brown patch, preventive spray on creeping bent grass seedlings
Procedure: (the causal agent of turf brown patch) and incubated in a saturated atmosphere at 27° C. for 24 h, and then moved to a growth chamber at 27° C. for 5 days, after which disease ratings were made.

Pythium aphanidermatum = assay: Test A: bluegrass pythium blight, preventive spray on bluegrass seedlings
Botrytis cinerea = assay: Test E: tomato botrytis, preventive spray on tomato seedlings
Septoria tritici = assay: Test J: wheat leaf blotch, preventive spray on wheat seedlings; assay type: in vivo
From the text: A dash (-) indicates no test results.

Septoria nodorum = assay: Test H: wheat glum blotch, preventive spray on wheat seedlings
Procedure: (the causal agent of wheat glum blotch) and incubated in a saturated atmosphere at 20° C. for 48 h, and then moved to a growth chamber at 22° C. for 5 days, after which disease ratings were made.

Plasmopara viticola = assay: Test D: grape downy mildew, spray after inoculation of grape seedlings; assay type: in vivo
From the text: Upon removal, disease ratings were made. […] A dash (-) indicates no test results.

[2] = tested on: Puccinia recondita f. sp. tritici; assay: Test K: wheat leaf rust, preventive spray on wheat seedlings
fusarium graminearium = assay: Test I: wheat head scab, preventive spray on wheat seedlings
Procedure: (the causal agent of wheat head scab) and incubated in a saturated atmosphere at 20° C. for 72 h, and then moved to a growth chamber at 22° C. for 5 days, after which disease ratings were made.

[3] = tested on: Colletotrichum orbiculare; assay: Test B: cucumber Colletotrichum anthracnose, preventive spray on cucumber seedlings
[4] = 200 ppm, 100 = 100% disease control, 0 = no control relative to controls
[5] = 40 ppm (marked *), 100 = 100% disease control, 0 = no control
[6] = 200 ppm, 100 = 100% disease control, 0 = no control

Compound: CCCn1c(-c2c(F)cccc2F)c(Cl)nc(-n2cccn2)c1=O [compound 27]
- Test F disease control rating (Phytophthora infestans; 200 ppm): 0%
- Test L disease control rating ([1]; 200 ppm): 100%
- Test G disease control rating (Rhizoctonia oryzae; 200 ppm): 67%
- Test A disease control rating (Pythium aphanidermatum; 200 ppm): 0%
- Test E disease control rating (Botrytis cinerea; 200 ppm): 100%
- Test J disease control rating (Septoria tritici; 200 ppm): 100%
- Test H disease control rating (Septoria nodorum; 200 ppm): 100%
- Test D disease control rating (Plasmopara viticola; 200 ppm): 47%
- Test K disease control rating ([2]; 200 ppm): 100%
- Test I disease control rating (fusarium graminearium; 200 ppm): 0%
- Test B disease control rating ([3]; 200 ppm): 99%

Compound: CC(C)Cn1c(-c2ccc(F)cc2F)c(F)nc(C(N)=O)c1=N [compound 429]
- Test F disease control rating (Phytophthora infestans; [4]): 0%
- Test L disease control rating [1, 4]: 0%
- Test G disease control rating (Rhizoctonia oryzae; [4]): 0%
- Test A disease control rating (Pythium aphanidermatum; [4]): 88%
- Test E disease control rating (Botrytis cinerea; [4]): 0%
- Test J disease control rating (Septoria tritici; [4]): 0%
- Test H disease control rating (Septoria nodorum; [4]): 0%
- Test D disease control rating (Plasmopara viticola; [4]): 0%
- Test K disease control rating [2, 4]: 0%
- Test I disease control rating (fusarium graminearium; [4]): 62%
- Test B disease control rating [3, 4]: 0%

Compound: CCC(C)c1c(Cl)nc(-n2cccn2)c(=O)n1CC(C)C (stereo not drawn) [Compound 424, 5-Chloro-6-(1-methylpropyl)-1-(2-methylpropyl)-3-(1H-pyrazol-1-yl)-2(1H)-pyrazinone]
- pest or weed control at 200 ppm (Phytophthora infestans; Phytophthora infestans, in Solanum lycopersicum, topical, 144 h, read-out: Test F disease control rating): 0%
- pest or weed control at 200 ppm ([1]; Blumeria graminis, in Triticum aestivum, 168 h, read-out: Test L disease control rating, 200 ppm, 100 = 100% disease control, 0 = no control relative to controls): 100%
- pest or weed control at 200 ppm (Rhizoctonia oryzae; Waitea circinata, in Agrostis stolonifera, topical, 144 h, read-out: Test G disease control rating, 200 ppm, 100 = 100% disease control, 0 = no control relative to controls): 99%
- pest or weed control at 200 ppm (Pythium aphanidermatum; Pythium aphanidermatum, 120 h, read-out: Test A disease control rating): 0%
- pest or weed control at 200 ppm (Botrytis cinerea; Botrytis cinerea, in Solanum lycopersicum, topical, 72 h, read-out: Test E disease control rating): 96%
- pest or weed control at 40 ppm (Septoria tritici; Zymoseptoria tritici, 528 h, 40 ppm (marked *), 100 = 100% disease control, 0 = no control, read-out: Test J disease control rating): 37%
- pest or weed control at 200 ppm (Septoria nodorum; Parastagonospora nodorum, in Triticum aestivum, topical, 168 h, read-out: Test H disease control rating, 200 ppm, 100 = 100% disease control, 0 = no control relative to controls): 0%
- pest or weed control at 200 ppm (Plasmopara viticola; Plasmopara viticola, 168 h, 200 ppm, 100 = 100% disease control, 0 = no control relative to controls, read-out: Test D disease control rating): 0%
- pest or weed control at 200 ppm ([2]; Puccinia recondita, in Triticum aestivum, 192 h, read-out: Test K disease control rating): 100%
- pest or weed control at 200 ppm (fusarium graminearium; Fusarium, in Triticum aestivum, topical, 192 h, read-out: Test I disease control rating, 200 ppm, 100 = 100% disease control, 0 = no control relative to controls): 0%
- pest or weed control at 200 ppm ([3]; Colletotrichum orbiculare, in Cucumis sativus, 144 h, read-out: Test B disease control rating, 200 ppm, 100 = 100% disease control, 0 = no control relative to controls): 0%

Compound: O=c1c(-n2cccn2)nc(Cl)c(-c2c(F)cccc2F)n1-c1cccc(F)c1F [compound 380]
- Test F disease control rating (Phytophthora infestans; [5]): 0* %
- Test L disease control rating [1, 5]: 99* %
- Test G disease control rating (Rhizoctonia oryzae; [4]): 60%
- Test A disease control rating (Pythium aphanidermatum; [5]): 0* %
- Test E disease control rating (Botrytis cinerea; [5]): 99* %
- Test J disease control rating (Septoria tritici; [5]): 99* %
- Test H disease control rating (Septoria nodorum; [5]): 99* %
- Test D disease control rating (Plasmopara viticola; [5]): 0* %
- Test K disease control rating [2, 5]: 100* %
- Test I disease control rating (fusarium graminearium; [5]): 60* %
- Test B disease control rating [3, 5]: 96* %

Compound: CC(C)Cn1c(C2CC2)c(Cl)nc(-n2cccn2)c1=O [compound 315]
- Test F disease control rating (Phytophthora infestans; [6]): 0%
- Test L disease control rating [1, 6]: 0%
- Test G disease control rating (Rhizoctonia oryzae; [6]): 0%
- Test A disease control rating (Pythium aphanidermatum; [6]): 69%
- Test E disease control rating (Botrytis cinerea; [6]): 0%
- Test J disease control rating (Septoria tritici; [6]): 7%
- Test H disease control rating (Septoria nodorum; [6]): 0%
- Test D disease control rating (Plasmopara viticola; [6]): 0%
- Test K disease control rating [2, 6]: 0%
- Test I disease control rating (fusarium graminearium; [6]): 0%
- Test B disease control rating [3, 6]: 0%

Compound: O=c1c(-n2cccn2)nc(Cl)c(-c2c(F)cc(F)cc2F)n1Cc1ccccc1Br [compound 345]
- Test F disease control rating (Phytophthora infestans; [6]): 0%
- Test L disease control rating [1, 5]: 88* %
- Test G disease control rating (Rhizoctonia oryzae; [5]): 31* %
- Test A disease control rating (Pythium aphanidermatum; [6]): 0%
- Test E disease control rating (Botrytis cinerea; [5]): 98* %
- Test J disease control rating (Septoria tritici; [5]): 100* %
- Test H disease control rating (Septoria nodorum; [5]): 99* %
- Test D disease control rating (Plasmopara viticola; [6]): 0%
- Test K disease control rating [2, 5]: 100* %
- Test I disease control rating (fusarium graminearium; [6]): 91%
- Test B disease control rating [3, 5]: 88* %

From patent US20080194585A1, “Fungicidal Pyrazine Derivatives” (priority 2005, published 2008)
